Test results: US11673881B2, “Isoquinolin-3-yl carboxamides and preparation and use thereof” (BioSplice Therapeutics, Inc., priority 2016, dated 2023)
pEC50: −log10 of the molar value.

What was measured:
[1] = system: Wnt activity, Sp5-Luc reporter in SW480 colon carcinoma cells; assay: Screening assay for Wnt activity (Sp5-Luc reporter gene assay); assay type: cell-based, human
Procedure: The screening assay for Wnt activity is described as follows.
Following incubation, 15 μl of BriteLite Plus luminescence reagent (Perkin Elmer) was added to each well of the 384-well assay plates. The plates were placed on an orbital shaker for 2 min and then luminescence was quantified using the Envision (Perkin Elmer) plate reader.

[2] = system: Tau phosphorylation at Ser396 (pSer396); assay: Tau phosphorylation assay (pSer396) in SH-SY5Y cells; assay type: cell-based, human; settings: overnight (16-18 h) exposure, pSer396 Tau ELISA
Procedure: Two days before treatment, cells were seeded onto 96 well plates at 5×10^4 cells/well.
Wells were visually checked for cell death or change in morphology and supernatants were tested for cytotoxicity by measurement of lactate dehydrogenase release (LDH, CytoToxOne kit, Promega) if necessary.
Cells were lysed with RIPA buffer complemented with phosphatase and protease inhibitors then lysates were spun down at 12,000 g for 10 min to remove any cellular debris. Lysates are then either directly tested for pSer396 by ELISA (Life Technology, Kit KHB7031) or loaded on NuPage Bis-Tris gels for western blot analysis. Colorimetric detection of ELISA signal is performed by Cytation3 plate reader (Biotek) and the chemiluminescence signal for HRP-linked antibodies used in western blotting is detected using a Carestream Image Station. The same pSer396 antibody is used for detection of pTau in both assays.

[3] = system: SW480 colon carcinoma cells; assay: Cell viability assay (CellTiter-Glo); assay type: cell-based, human; settings: four days incubation
[4] = system: LL29 cells (αSMA positive cells); assay: Fibrosis assay: TGF-β1 treated primary human fibroblasts from IPF patients, αSMA staining; assay type: cell-based; settings: LL29 cells treated with TGF-β1, 4 days
IL-6 = IL-6 inhibition in LPS-stimulated human peripheral blood mononuclear cells (HTRF); assay type: cell-based; settings: LPS-stimulated huPBMCs, IL-6 HTRF
Procedure: After 22 hour incubation, a mixture of anti-IL6 XL665 and anti-IL-6 Cryptate diluted in reconstitution buffer (Catalog #62IL6PEC, Cisbio Inc., Bedford, Mass.) was added to each well. […] All samples were processed in duplicate. […] EC50 was determined using software generated by Dotmatics Limited (Windhill Bishops Stortford Herts, UK) using the Levenberg-Marquardt 4 parameter fitting procedure with finite different gradients.

Q: With `Cn1cc(-c2ccc3cnc(NC(=O)C(C)(C)F)cc3c2)nn1` [Compound 312, 2-Fluoro-2-methyl-N-(6-(1-methyl-1H-1,2,3-triazol-4-yl)isoquinolin-3-yl) propanamide] as the compound, how does the “percent inhibition at 10 μM” value ([1]; given for EC50 of >10 μM) read?
A: The value was 23.8%.

Q: What about the pEC50 ([1]; incubated 36 to 48 hours) of the same compound?
A: The pEC50 was < 5.00.

Q: What about the pEC50 [2] of the same compound?
A: The pEC50 was 6.12.

Q: What about the pEC50 [3] of the same compound?
A: Its pEC50 is < 5.00.

Q: And the “percent inhibition at 10 μM (given where EC50 >10 μM)” value ([4]; 10 μM)?
A: The value was 36.5%.

Q: What about the pEC50 ([4]; αSMA staining) of the same compound?
A: Its pEC50 is < 5.00.

Q: What about the “percent inhibition at 10 μM (given where EC50 >10 μM)” value (IL-6; 10 μM) of the same compound?
A: The value was 3.9%.

Q: What about the pEC50 (IL-6) of the same compound?
A: The pEC50 was < 5.00.
